Experimental data: US6680070B1, “Particulate blends and compacted products formed therefrom, and the preparation thereof” (Albemarle Corporation, priority 2000, dated 2004)
Values joined by “and” are separate entries in the source; they are usually repeats but may differ in a detail not shown here. Equal values may be shown once.

Legend:
[1] = Large tablet compaction, 2.5-inch punch and die, Carver Press; conditions: 63.8 g, 2.5-inch die, 5000 psi, no dwell time, silicone oil lubricant
Experimental: Tableting operations were carried out using three different samples of 1,3-dibromo-5,5-dimethylhydantoin. In these operations, a 2.5-inch diameter stainless punch and die were used to compact samples weighing 63.8 grams each. […] A thin film of silicone oil lubricant was applied to the internal faces of the punch and die to promote good mold release. A Carver Press was used to apply a pressure of 5000 psi to the material. There was no dwell time, and the pressure was immediately released on obtaining 5000 psi. On extraction from the die, a visual observation of the compacted form was made.

[2] = Compaction test: tablet pressed in die, visual observation on extraction; type: physicochemical; conditions: 0.71 inch die, 5000 psi, no dwell time, die dusted with MICROPRO 400; listed as control sample
[3] = Granulation through Chilsonator breaker and screens; type: physicochemical; conditions: Chilsonator breaker, screens U.S. mesh 12 to 18
Experimental: The mixing time was 60 minutes in each case. […] The mixing time was 240 minutes. Each blend was passed through a Chilsonator® breaker (The Fitzpatrick Company, Elmhurst, Ill.) and a set of screens to produce compacted granules of U.S. mesh size 12 to 18. […] Instead, the unblended material exiting the Chilsonator® was mostly loose powder.

[4] = Storage stability at 50° C., wt % active bromine by iodometric titration; type: physicochemical
Source text: Three more samples of the blend (5 g each) were compacted in the same manner, and each time a single tablet was extracted from the die after the pressure had been released. The tablets were manually broken into two equally-sized pieces. One half of each tablet was crushed into a powder with a mortar and pestle, and the powder was titrated using the standard, well-known, iodometric method with a starch indicator to determine the wt % of active bromine. The other half of each tablet was placed in a sealed glass vial and placed in an oven at 50° C. After 30 days, the samples were removed from the oven, ground up, and titrated to determine its wt % of active bromine using the same analytical method.

[5] = Crush strength test (Sintech 1/S compression apparatus); type: physicochemical; conditions: Table 8, no binder; for Crush Strength (force at breaking point), single tablet / Crush Strength per inch thickness, single tablet: 5 g, 5000 psi, aged 6 days at room temperature
Source text: In each test, tablets made from 5 g of blended material were used. […] The apparatus includes a horizontal circular-shaped load cell interfaced with a computer, a digital micrometer also interfaced with the computer, and a vertical screw-driven piston that is disposed above the load cell and adapted to apply a downward force perpendicular to the load cell. The procedure for measuring crush strength involves measuring the thickness of the tablet with the micrometer to provide a digitized input to the computer. Next the tablet is placed on its edge on the load cell with the piston in contact with the upper edge of the tablet. Then the apparatus is activated whereby the piston commences applying a progressively increasing downward diametral force to the tablet. At the same time, the load cell continuously measures the downward force being applied to the tablet, and the input of such measurements is transmitted to the computer. When the force being applied reaches the point where the amount of force suddenly decreases to 10% of the immediately preceding force, the tablet has reached the breaking point, and the application of the force is immediately terminated by the software program. From the inputs to the computer, two values are provided, namely the pounds of force at the breaking point of the tablet, and the pounds of force per inch thickness of the tablet at the breaking point. Thus the greater the force applied, the greater the crush strength. […] When the compacted article is in a form other than a cylindrical tablet (e.g., a granule, caplet, briquette, or puck), the article being tested is to be positioned on the load cell and under the screw-driven piston with the longest axis of the article in the vertical position. In addition, the micrometer is used to measure the thickest portion of the article when the article is positioned on the load cell and under the screw-driven piston with the longest axis of the article in the vertical position.

[6] = Naproxen caplet compaction at 25,000 psi; type: physicochemical; conditions: imprinted stainless steel punch and die, 0.12-inch cross-sectional area
Experimental: A blend of commercially available virgin naproxen powder (Albemarle Corporation, Richmond, Va.) and micronized polyethylene wax (MPP-611; Micro Powders, Inc., Tarrytown, N.Y.) was formed. The blend contained 10 wt % of the micronized wax. Two 250 mg samples and three 318 mg samples of this blend were compacted in an imprinted stainless steel punch and die set of 0.12-inch cross-sectional area. Upon attaining a pressure of 25,000 psi, the pressure was released. […] The caplets were shiny and free of edge-burrs and surface defects. The imprinted lettering from the top punch was clearly impressed into the caplets.
Instead, as the punches were separated, approximately half of the naproxen had stuck to the top punch and the remainder had stuck to the bottom punch.

Q: For CC1(C)C(=O)N(Br)C(=O)N1Br, which “Observations (large tablet on extraction from die)” value [1] is on record?
A: Its value is “Intact tablet exhibiting”.

Q: Which “Observations (tablet on extraction from die)” value [2] does the source give for CC1(C)C(=O)N(Br)C(=O)N1Br [DBDMH - without wax binder] here?
A: Its value is “not possible to extract a single tablet from the die”.

Q: And the Compaction into granules [3]?
A: Its Compaction into granules is “did not compact and form granules”.

Q: What about the “Observations (large tablet on extraction from die)” value ([1]; listed as Commercial sample without binder) of the same compound?
A: Its value is “Tablet delaminates”.

Q: And the “Wt % Active Bromine, Initial” value ([4]; half tablet crushed, iodometric titration)?
A: The value was 55.3 Wt %.

Q: What about the “Wt % Active Bromine, After 30 days” value ([4]; half tablet in sealed glass vial, oven at 50° C., 30 days) of the same compound?
A: The value was 55.2 Wt %.

Q: With CC1(C)C(=O)N(Br)C(=O)N1Br [Set A] as the compound, how does the “Crush Strength (force at breaking point), single tablet” value ([5]; listed as A) read?
A: The value was 20.9 lb. and 25.5 lb. and 19.2 lb. and 22.8 lb. and 23.7 lb.

Q: And the “Crush Strength per inch thickness, single tablet” value ([5]; listed as A)?
A: Its value is 57.3 lb./in. and 69.5 lb./in. and 52.5 lb./in. and 62.1 lb./in. and 65.0 lb./in.

Q: What about the “Crush Strength (force at breaking point), average of set” value ([5]; listed as A) of the same compound?
A: The value was 22.4 lb.

Q: And the “Crush Strength per inch thickness, average of set” value ([5]; listed as A)?
A: The value was 61.3 lb./in.

Q: For CC1(C)C(=O)N(Br)C(=O)N1Br [Set B], which “Crush Strength (force at breaking point), single tablet” value ([5]; listed as B) is on record?
A: Its value is 10.7 lb. and 12.8 lb. and 9.8 lb.

Q: What about the “Crush Strength per inch thickness, single tablet” value ([5]; listed as B) of the same compound?
A: The value was 30.4 lb./in. and 36.4 lb./in. and 27.8 lb./in.

Q: What about the “Crush Strength (force at breaking point), average of set” value ([5]; listed as B) of the same compound?
A: The value was 11.1 lb.

Q: And the “Crush Strength per inch thickness, average of set” value ([5]; listed as B)?
A: Its value is 31.5 lb./in.

Q: Which Caplet formation [6] does the source give for COc1ccc2cc([C@H](C)C(=O)O)ccc2c1 [naproxen] here?
A: Its Caplet formation is “No unbroken caplet of naproxen could be produced”.
